Legend:
ERK5 = molecular target: T1, ERK5 (Homo sapiens, UniProt Q13164); assay: Probe-based (AX9989 acyl phosphate ATP probe) kinase profiling in Jurkat lysate: ERK5; assay type: binding; settings: for IC50: calculated from percent inhibition and screening concentration, Jurkat lysate, AX9989 probe; for inhibition at 1 µM: screening concentration 1 μM; for inhibition at 1 µM / inhibition at 10 µM: read-out: ERK5 Inhibition % at indicated screening concentration; for inhibition at 10 µM: screening concentration 10 μM
T1 construct: screened for activity against several kinases in Jurkat cells; endogenous in cells; host or cells: Jurkat cell lysate
How it was run: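 Gel-filtered Jurkat lysate (5 mg/ml, 20 mM MnCl2) preincubated 15 min at room temperature with compound, then labelled with 5 μM AX9989 acyl phosphate ATP probe. Probe-labelled ERK5 active-site peptides quantified by LC/MS after trypsin digestion and streptavidin capture; IC50 calculated from percent inhibition at the screening concentration.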

AurA = molecular target: T2, AurA (Homo sapiens, UniProt O14965); assay: Probe-based (AX9989) kinase profiling in Jurkat lysate: AurA; assay type: binding; settings: read-out: AurA Inhibition % at indicated screening concentration; for inhibition at 1 µM: screening concentration 1 μM; for inhibition at 10 µM: screening concentration 10 μM
T2 construct: screened for activity against several kinases in Jurkat cells; endogenous in cells; host or cells: Jurkat cell lysate
T2 sequence (O14965 1-403): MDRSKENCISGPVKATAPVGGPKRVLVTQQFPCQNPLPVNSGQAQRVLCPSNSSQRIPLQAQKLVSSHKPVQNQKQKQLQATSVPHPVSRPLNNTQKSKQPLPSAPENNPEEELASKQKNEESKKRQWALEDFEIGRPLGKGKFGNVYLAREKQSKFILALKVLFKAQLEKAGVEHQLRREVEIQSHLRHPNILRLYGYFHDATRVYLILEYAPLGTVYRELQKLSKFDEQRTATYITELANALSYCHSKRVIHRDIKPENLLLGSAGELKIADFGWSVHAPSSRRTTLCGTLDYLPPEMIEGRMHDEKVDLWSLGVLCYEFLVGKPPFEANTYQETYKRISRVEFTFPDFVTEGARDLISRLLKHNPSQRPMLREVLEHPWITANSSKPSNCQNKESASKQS
How it was run: (§1)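 Jurkat lysate, HEPES pH 7.5 buffer + 20 mM MnCl2; cpd 15 min RT; AX9989 ATP probe 5 μM final, RT. Trypsin digest, streptavidin capture, LC/MS; % inhibition vs vehicle from labeled-peptide signal.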

AurB or AurC = assay: Probe-based (AX9989) kinase profiling in Jurkat lysate: AurB or AurC; assay type: binding
How it was run: as §1

JAK1 = molecular target: T3, JAK1 (Homo sapiens, UniProt P23458); assay: Probe-based (AX9989) kinase profiling in Jurkat lysate: JAK1; assay type: binding; settings: read-out: JAK1 Inhibition % at indicated screening concentration; for inhibition at 1 µM: screening concentration 1 μM; for inhibition at 10 µM: screening concentration 10 μM
T3 construct: screened for activity against several kinases in Jurkat cells; endogenous in cells; host or cells: Jurkat cell lysate
How it was run: as §1

AMPKa1 or AMPKa2 = assay: Probe-based (AX9989) kinase profiling in Jurkat lysate: AMPKa1 or AMPKa2; assay type: binding
How it was run: as §1

TAO2 = molecular target: T4, TAO2 (Homo sapiens, UniProt Q9UL54); assay: Probe-based (AX9989) kinase profiling in Jurkat lysate: TAO2; assay type: binding; settings: read-out: TAO2 Inhibition % at indicated screening concentration; for inhibition at 1 µM: screening concentration 1 μM; for inhibition at 10 µM: screening concentration 10 μM
T4 construct: screened for activity against several kinases in Jurkat cells; endogenous in cells; host or cells: Jurkat cell lysate
T4 sequence (Q9UL54 1-1235): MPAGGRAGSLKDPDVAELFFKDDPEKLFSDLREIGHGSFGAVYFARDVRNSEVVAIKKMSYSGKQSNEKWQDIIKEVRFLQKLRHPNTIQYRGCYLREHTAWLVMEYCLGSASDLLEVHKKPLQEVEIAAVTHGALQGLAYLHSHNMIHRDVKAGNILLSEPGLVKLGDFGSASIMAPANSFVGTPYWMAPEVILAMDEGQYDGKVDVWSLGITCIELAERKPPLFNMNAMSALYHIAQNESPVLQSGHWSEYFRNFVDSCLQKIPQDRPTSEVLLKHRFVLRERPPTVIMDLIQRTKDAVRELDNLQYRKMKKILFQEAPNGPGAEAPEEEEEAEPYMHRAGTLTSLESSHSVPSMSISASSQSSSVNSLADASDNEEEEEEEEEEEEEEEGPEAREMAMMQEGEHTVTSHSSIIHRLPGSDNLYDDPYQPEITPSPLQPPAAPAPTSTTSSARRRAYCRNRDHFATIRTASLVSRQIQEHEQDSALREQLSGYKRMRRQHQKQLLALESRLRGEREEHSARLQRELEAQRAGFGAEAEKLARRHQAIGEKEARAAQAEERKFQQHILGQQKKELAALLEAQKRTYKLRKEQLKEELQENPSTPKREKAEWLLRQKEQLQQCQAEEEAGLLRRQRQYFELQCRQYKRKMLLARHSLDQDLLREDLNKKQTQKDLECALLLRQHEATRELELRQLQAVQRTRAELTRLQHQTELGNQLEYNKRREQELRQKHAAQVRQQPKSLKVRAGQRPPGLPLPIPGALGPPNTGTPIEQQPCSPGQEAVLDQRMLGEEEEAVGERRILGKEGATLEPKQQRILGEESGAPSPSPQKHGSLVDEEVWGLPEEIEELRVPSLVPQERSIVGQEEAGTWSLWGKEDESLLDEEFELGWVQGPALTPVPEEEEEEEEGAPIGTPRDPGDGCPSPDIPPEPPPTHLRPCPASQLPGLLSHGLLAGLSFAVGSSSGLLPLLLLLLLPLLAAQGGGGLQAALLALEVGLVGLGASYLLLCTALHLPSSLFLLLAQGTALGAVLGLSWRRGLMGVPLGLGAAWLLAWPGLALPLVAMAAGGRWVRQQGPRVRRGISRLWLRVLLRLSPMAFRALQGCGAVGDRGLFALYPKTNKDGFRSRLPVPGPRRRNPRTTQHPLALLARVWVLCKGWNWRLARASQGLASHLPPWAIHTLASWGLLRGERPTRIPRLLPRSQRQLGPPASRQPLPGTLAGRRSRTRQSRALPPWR
How it was run: as §1

ACK = molecular target: T5, ACK (Homo sapiens, UniProt Q07912); assay: Probe-based (AX9989) kinase profiling in Jurkat lysate: ACK; assay type: binding; settings: read-out: ACK Inhibition % at indicated screening concentration; for inhibition at 1 µM: screening concentration 1 μM; for inhibition at 10 µM: screening concentration 10 μM
T5 construct: screened for activity against several kinases in Jurkat cells; endogenous in cells; host or cells: Jurkat cell lysate
How it was run: as §1

ABL or ARG = assay: Probe-based (AX9989) kinase profiling in Jurkat lysate: ABL or ARG; assay type: binding
How it was run: as §1

human PBMCs = assay: Human PBMC TNF-α response to endotoxin (ELISA); assay type: cell-based; settings: 0.1 μg/ml LPS 16 h, read-out: EC50 for the inhibition of the human PBMC TNF-α response to endotoxin, ave. ± S.D.
How it was run: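 PBMCs at 2e6 cells/ml in RPMI 1640 with 10% charcoal-dextran-treated FBS were pre-treated 1 h at 37 °C with compound (4-point 1:5 dilution from 10 μM). Stimulation with 0.1 μg/ml E. coli 0111:B4 LPS for 16 h; TNF-α measured by ELISA (A450) in 25-fold diluted supernatant.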

T1 sequence (Q13164 whole entry): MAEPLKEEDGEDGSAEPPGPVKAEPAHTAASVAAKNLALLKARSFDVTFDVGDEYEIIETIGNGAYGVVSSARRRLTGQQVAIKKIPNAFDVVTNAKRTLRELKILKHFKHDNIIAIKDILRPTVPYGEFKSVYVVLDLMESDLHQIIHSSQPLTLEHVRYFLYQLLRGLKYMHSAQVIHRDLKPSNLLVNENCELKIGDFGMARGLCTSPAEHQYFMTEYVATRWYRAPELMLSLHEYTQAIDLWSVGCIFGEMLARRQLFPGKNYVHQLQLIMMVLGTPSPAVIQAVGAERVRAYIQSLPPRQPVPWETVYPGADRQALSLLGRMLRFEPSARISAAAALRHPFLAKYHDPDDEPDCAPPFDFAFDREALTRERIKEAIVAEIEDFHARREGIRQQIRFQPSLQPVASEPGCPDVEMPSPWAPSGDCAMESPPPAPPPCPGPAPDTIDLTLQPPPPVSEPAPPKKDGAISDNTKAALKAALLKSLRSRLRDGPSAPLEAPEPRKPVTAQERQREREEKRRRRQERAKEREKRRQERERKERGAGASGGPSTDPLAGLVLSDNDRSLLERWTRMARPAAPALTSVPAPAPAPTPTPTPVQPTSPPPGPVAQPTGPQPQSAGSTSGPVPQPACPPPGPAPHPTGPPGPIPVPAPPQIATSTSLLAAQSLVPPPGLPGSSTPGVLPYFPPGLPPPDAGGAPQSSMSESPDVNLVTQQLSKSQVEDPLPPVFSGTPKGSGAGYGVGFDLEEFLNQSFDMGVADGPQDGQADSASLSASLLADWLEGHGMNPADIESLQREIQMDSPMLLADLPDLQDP
T3 sequence (P23458 whole entry): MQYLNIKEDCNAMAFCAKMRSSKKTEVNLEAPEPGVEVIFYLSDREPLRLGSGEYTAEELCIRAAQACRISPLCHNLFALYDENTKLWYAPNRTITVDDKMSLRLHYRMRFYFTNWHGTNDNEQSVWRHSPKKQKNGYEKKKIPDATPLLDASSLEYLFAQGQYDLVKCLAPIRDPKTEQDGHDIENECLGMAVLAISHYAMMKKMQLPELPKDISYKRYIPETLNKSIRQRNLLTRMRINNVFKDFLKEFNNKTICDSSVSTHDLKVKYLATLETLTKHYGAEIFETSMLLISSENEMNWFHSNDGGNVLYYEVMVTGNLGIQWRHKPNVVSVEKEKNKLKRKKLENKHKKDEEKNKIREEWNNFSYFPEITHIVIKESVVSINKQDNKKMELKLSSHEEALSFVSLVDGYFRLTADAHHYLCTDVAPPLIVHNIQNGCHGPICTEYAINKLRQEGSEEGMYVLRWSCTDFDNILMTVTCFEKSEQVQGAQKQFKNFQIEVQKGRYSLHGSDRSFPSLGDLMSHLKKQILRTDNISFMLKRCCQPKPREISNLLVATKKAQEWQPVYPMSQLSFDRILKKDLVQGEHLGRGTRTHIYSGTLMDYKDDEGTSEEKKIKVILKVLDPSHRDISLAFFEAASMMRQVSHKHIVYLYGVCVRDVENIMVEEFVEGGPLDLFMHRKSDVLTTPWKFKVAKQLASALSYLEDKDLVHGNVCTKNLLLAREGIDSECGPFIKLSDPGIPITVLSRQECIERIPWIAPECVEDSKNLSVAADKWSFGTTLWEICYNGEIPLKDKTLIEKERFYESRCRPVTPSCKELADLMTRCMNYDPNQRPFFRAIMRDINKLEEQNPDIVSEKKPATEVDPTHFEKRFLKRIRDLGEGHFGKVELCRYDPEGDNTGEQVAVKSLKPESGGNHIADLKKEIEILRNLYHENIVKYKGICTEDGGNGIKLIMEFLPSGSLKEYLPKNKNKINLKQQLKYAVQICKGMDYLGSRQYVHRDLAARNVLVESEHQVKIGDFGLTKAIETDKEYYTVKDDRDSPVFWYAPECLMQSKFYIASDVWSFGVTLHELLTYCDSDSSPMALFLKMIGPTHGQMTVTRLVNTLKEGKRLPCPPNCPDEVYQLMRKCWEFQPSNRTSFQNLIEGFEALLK
T5 sequence (Q07912 whole entry): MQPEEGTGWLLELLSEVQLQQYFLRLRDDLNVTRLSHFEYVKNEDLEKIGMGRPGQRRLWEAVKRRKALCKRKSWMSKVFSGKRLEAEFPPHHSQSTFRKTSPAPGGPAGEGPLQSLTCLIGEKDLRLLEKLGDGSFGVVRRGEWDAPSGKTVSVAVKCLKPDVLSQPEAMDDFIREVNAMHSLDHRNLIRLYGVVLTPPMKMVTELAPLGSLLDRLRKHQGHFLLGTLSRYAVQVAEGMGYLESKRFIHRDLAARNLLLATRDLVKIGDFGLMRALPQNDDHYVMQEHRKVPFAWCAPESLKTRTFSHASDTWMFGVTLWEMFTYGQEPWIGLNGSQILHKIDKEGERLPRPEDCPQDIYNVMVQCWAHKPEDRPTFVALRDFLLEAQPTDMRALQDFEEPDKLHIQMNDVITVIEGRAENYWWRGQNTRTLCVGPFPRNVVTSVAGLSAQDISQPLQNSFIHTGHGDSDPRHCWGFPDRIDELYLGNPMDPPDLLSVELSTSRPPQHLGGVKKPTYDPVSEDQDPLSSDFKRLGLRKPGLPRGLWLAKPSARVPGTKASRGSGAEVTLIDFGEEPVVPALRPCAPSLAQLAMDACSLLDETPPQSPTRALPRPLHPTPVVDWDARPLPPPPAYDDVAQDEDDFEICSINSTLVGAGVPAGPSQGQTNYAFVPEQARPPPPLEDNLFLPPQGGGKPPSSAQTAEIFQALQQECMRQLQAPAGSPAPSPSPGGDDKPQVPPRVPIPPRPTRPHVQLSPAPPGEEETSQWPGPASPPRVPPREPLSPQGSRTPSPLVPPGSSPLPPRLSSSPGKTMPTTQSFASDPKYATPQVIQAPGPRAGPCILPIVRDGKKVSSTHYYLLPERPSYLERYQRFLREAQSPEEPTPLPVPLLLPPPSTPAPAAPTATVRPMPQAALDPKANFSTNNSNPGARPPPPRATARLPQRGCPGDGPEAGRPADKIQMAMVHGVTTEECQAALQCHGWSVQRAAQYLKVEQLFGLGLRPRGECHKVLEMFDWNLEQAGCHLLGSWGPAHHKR

SMILES | IC50 (ERK5) [nM] | inhibition at 1 µM (ERK5) [%] | inhibition at 1 µM (AurA) [%] | AurB or AurC Inhibition % at indicated screening concentration (AurB or AurC; screening concentration 1 μM) | inhibition at 1 µM (JAK1) [%] | AMPKa1 or AMPKa2 Inhibition % at indicated screening concentration (AMPKa1 or AMPKa2; screening concentration 1 μM) | inhibition at 1 µM (TAO2) [%] | inhibition at 1 µM (ACK) [%] | ABL or ARG Inhibition % at indicated screening concentration (ABL or ARG; screening concentration 1 μM) | EC50 (human PBMCs) [nM] | inhibition at 10 µM (ERK5) [%] | inhibition at 10 µM (AurA) [%] | AurB or AurC Inhibition % at indicated screening concentration (AurB or AurC; screening concentration 10 μM) | inhibition at 10 µM (JAK1) [%] | AMPKa1 or AMPKa2 Inhibition % at indicated screening concentration (AMPKa1 or AMPKa2; screening concentration 10 μM) | inhibition at 10 µM (TAO2) [%] | inhibition at 10 µM (ACK) [%] | ABL or ARG Inhibition % at indicated screening concentration (ABL or ARG; screening concentration 10 μM)
CN1CCN([C@@H]2CCN(C(=O)c3ccc(Nc4cc5c(cn4)N(C)C(=O)c4ccccc4N5C)c(OC(F)F)c3)C2)CC1 [Compound T75] | ≤ 50 | > 90 | ≤ 35 | E (E is ≦35%) | ≤ 35 | E (E is ≦35%) | ≤ 35 | ≤ 35 | E (E is ≦35%) | 1550 ± 1110 | – | – | – | – | – | – | – | –
[2H]C([2H])([2H])N1C(=O)c2ccccc2N(C([2H])([2H])[2H])c2cc(Nc3ccc(C(=O)N4CCN(C(C)=O)CC4)cc3OCC)ncc21 [Compound T77] | 50 to 100 | > 90 | ≤ 35 | E (E is ≦35%) | ≤ 35 | E (E is ≦35%) | ≤ 35 | ≤ 35 | E (E is ≦35%) | 6330 | – | – | – | – | – | – | – | –
CCOc1cc(C(=O)N2CCN(C3CCN(C)CC3)CC2)ccc1Nc1cc2c(cn1)N(C)C(=O)c1ccccc1N2C1CC1 [Compound T79] | ≤ 50 | > 90 | ≤ 35 | E (E is ≦35%) | ≤ 35 | E (E is ≦35%) | ≤ 35 | ≤ 35 | E (E is ≦35%) | 7200 | – | – | – | – | – | – | – | –
CCOc1cc(C(=O)N2CCN(C3CCN(C)CC3)CC2)ccc1Nc1cc2c(cn1)N(C)C(=N)c1ccccc1N2C [Compound T80] | > 500 | – | – | – | – | – | – | – | – | > 15000 | ≤ 35 | ≤ 35 | E (E is ≦35%) | ≤ 35 | E (E is ≦35%) | ≤ 35 | ≤ 35 | E (E is ≦35%)
CCOc1cc(C(=O)N2CCC(N3CCN(C)CC3)CC2)ccc1Nc1cc2c(cn1)N(C)C(=O)c1ccccc1N2S(C)(=O)=O [Compound T85] | > 500 | ≤ 35 | ≤ 35 | E (E is ≦35%) | ≤ 35 | E (E is ≦35%) | ≤ 35 | ≤ 35 | E (E is ≦35%) | > 15000 | – | – | – | – | – | – | – | –
CN1C(=O)c2ccccc2N(C)c2cc(N[C@H]3C[C@H](O)C3)ncc21 [Compound T88] | > 500 | – | – | – | – | – | – | – | – | 2530 | 75 to 90 | 50 to 75 | B (B is >75% to ≦90%) | ≤ 35 | E (E is ≦35%) | 35 to 50 | ≤ 35 | E (E is ≦35%)
CCOc1cc(C(=O)N2CCN(C3CCN(C)CC3)CC2)ccc1Nc1cc2c(cn1)N(C)C(=O)c1ccccc1[S+]2[O-] (stereo not shown) [Compound T100] | > 500 | – | – | – | – | – | – | – | – | > 15000 | 75 to 90 | ≤ 35 | E (E is ≦35%) | ≤ 35 | E (E is ≦35%) | ≤ 35 | ≤ 35 | E (E is ≦35%)
